Data: patent US12251387B2, “Substituted quinoxalines and benzo[c][1,2,5]oxadiazoles as DNA-PK inhibitors” (Vertex Pharmaceuticals Incorporated, priority 2013, dated 2025)

Biological target: DNA-PK (Homo sapiens, UniProt P78527)
Experiment: DNA-PK Inhibition Assay (standard radiometric kinase assay, 33P-ATP, peptide substrate)
Format: biochemical
Conditions: radiometric assay, approximately 6 nM DNA-PK, 100 μM ATP, 45 min; fit to competitive tight-binding inhibition; read-out: Ki for the inhibition of DNA-PK
Method: Compounds were screened for their ability to inhibit DNA-PK kinase using a standard radiometric assay. Briefly, in this kinase assay the transfer of the terminal ^33P-phosphate in ^33P-ATP to a peptide substrate is interrogated. The assay was carried out in 384-well plates to a final volume of 50 μL per well containing approximately 6 nM DNA-PK, 50 mM HEPES (pH 7.5), 10 mM MgCl2, 25 mM NaCl, 0.01% BSA, 1 mM DTT, 10 μg/mL sheared double-stranded DNA (obtained from Sigma), 0.8 mg/mL DNA-PK peptide (Glu-Pro-Pro-Leu-Ser-Gln-Glu-Ala-Phe-Ala-Asp-Leu-Trp-Lys-Lys-Lys, obtained from American Peptide), and 100 μM ATP. Accordingly, compounds of the invention were dissolved in DMSO to make 10 mM initial stock solutions. Serial dilutions in DMSO were then made to obtain the final solutions for the assay. A 0.75 μL aliquot of DMSO or inhibitor in DMSO was added to each well, followed by the addition of ATP substrate solution containing ^33P-ATP (obtained from Perkin Elmer). The reaction was started by the addition of DNA-PK, peptide and ds-DNA. After 45 min, the reaction was quenched with 25 μL of 5% phosphoric acid. The reaction mixture was transferred to MultiScreen HTS 384-well PH plates (obtained from Millipore), allowed to bind for one hour, and washed three times with 1% phosphoric acid. Following the addition of 50 μL of Ultima Gold™ high efficiency scintillant (obtained from Perkin Elmer), the samples were counted in a Packard TopCount NXT Microplate Scintillation and Luminescence Counter (Packard BioScience). The Ki values were calculated using Microsoft Excel Solver macros to fit the data to the kinetic model for competitive tight-binding inhibition.

Ki, < 100 nM:
CC(C)Oc1cc(N[C@H]2CC[C@@H](Oc3cc(N4CCOCC4)cc4nccnc34)CC2)ccn1 [Compound 349], CCc1ncnc(N[C@H]2CC[C@@H](Oc3cc(C4=CCOCC4)cc4nccnc34)CC2)c1F [Compound 295], Cc1cc(N[C@H]2CC[C@@H](Oc3cc(N4CCOCC4)cc4nccnc34)CC2)ccn1 [Compound 285], OCc1cc(N[C@H]2CC[C@@H](Oc3cc(N4CCOCC4)cc4nccnc34)CC2)ncn1 [Compound 424], CN1CC[C@H](Nc2ncnc(N[C@H]3CC[C@@H](Oc4cc(N5CCOCC5)cc5nccnc45)CC3)c2F)C1 [Compound 343], CN(C)c1nccc(N[C@H]2CC[C@@H](Oc3cc(N4CCOCC4)cc4nccnc34)CC2)n1 [Compound 453], c1ccc(N[C@H]2CC[C@@H](Oc3cc(N4CCOCC4)cc4nccnc34)CC2)cc1 [Compound 648], Cn1ncc2c(N[C@H]3CC[C@@H](Oc4cc(N5CCOCC5)cc5nccnc45)CC3)ncnc21 [Compound 545], CN(C)c1ccnc(N[C@H]2CC[C@@H](Oc3cc(N4CCOCC4)cc4nccnc34)CC2)n1 [Compound 489], CN1CCc2ncnc(N[C@H]3CC[C@@H](Oc4cc(N5CCOCC5)cc5nccnc45)CC3)c2C1 [Compound 398], Fc1cnc(N[C@H]2CC[C@@H](Oc3cc(N4CCOCC4)cc4nccnc34)CC2)c(F)c1 [Compound 594], c1cnc2c(O[C@H]3CC[C@@H](Nc4ncc5occc5n4)CC3)cc(N3CCOCC3)cc2n1 [Compound 563], O=C(N[C@H]1CC[C@@H](Oc2cc(N3CCOCC3)cc3nccnc23)CC1)N1CCCCC1 [Compound 416], c1cc2ncnn2c(N[C@H]2CC[C@@H](Oc3cc(N4CCOCC4)cc4nccnc34)CC2)n1 [Compound 542], Cc1csc(N[C@H]2CC[C@@H](Oc3cc(N4CCOCC4)cc4nccnc34)CC2)n1 [Compound 284], c1cnc2c(O[C@H]3CC[C@@H](Nc4ccc(OC5COC5)cn4)CC3)cc(N3CCOCC3)cc2n1 [Compound 638], CN1CCc2nc(N[C@H]3CC[C@@H](Oc4cc(N5CCOCC5)cc5nccnc45)CC3)ncc2C1 [Compound 632], Cc1cnc(C)c(N[C@H]2CC[C@@H](Oc3cc(N4CCOCC4)cc4nccnc34)CC2)c1 [Compound 441], FC(F)(F)c1ncc(N[C@H]2CC[C@@H](Oc3cc(N4CCOCC4)cc4nccnc34)CC2)cn1 [Compound 428], Cc1ncnc(N[C@H]2CC[C@@H](Oc3cc(N4CCOCC4)cc4nccnc34)CC2)c1F [Compound 477], O=C(N[C@H]1CC[C@@H](Oc2cc(N3CCOCC3)cc3nccnc23)CC1)N1CCCC1 [Compound 415], Fc1cccc(N[C@H]2CC[C@@H](Oc3cc(N4CCOCC4)cc4nccnc34)CC2)n1 [Compound 614], CC(C)NC(=O)c1cc(N[C@H]2CC[C@@H](Oc3cc(N4CCOCC4)cc4nccnc34)CC2)ncn1 [Compound 643], CNC(=O)c1cc(C)nc(N[C@H]2CC[C@@H](Oc3cc(N4CCOCC4)cc4nccnc34)CC2)n1 [Compound 308], CN(C)C(=O)c1ccnc(N[C@H]2CC[C@@H](Oc3cc(N4CCOCC4)cc4nccnc34)CC2)n1 [Compound 351], Cc1nc(N[C@H]2CC[C@@H](Oc3cc(N4CCOCC4)cc4nccnc34)CC2)c2occc2n1 [Compound 435], CSc1nc(N[C@H]2CC[C@@H](Oc3cc(N4CCOCC4)cc4nccnc34)CC2)cs1 [Compound 628], CN(C)C(=O)c1cc(N[C@H]2CC[C@@H](Oc3cc(N4CCOCC4)cc4nccnc34)CC2)ncn1 [Compound 361], Cc1nccc(N[C@H]2CC[C@@H](Oc3cc(N4CC5CC(C4)O5)cc4nccnc34)CC2)n1 [Compound 353], Clc1ccc(N[C@H]2CC[C@@H](Oc3cc(N4CCOCC4)cc4nccnc34)CC2)nn1 [Compound 40], c1cc(N[C@H]2CC[C@@H](Oc3cc(N4CCOCC4)cc4nccnc34)CC2)nc(CN2CCCCC2)n1 [Compound 496], c1nc(N[C@H]2CC[C@@H](Oc3cc(N4CCOCC4)cc4nccnc34)CC2)c2c(n1)OCC2 [Compound 479], c1cnc2c(O[C@H]3CC[C@@H](Nc4ncc(OCCN5CCOCC5)cn4)CC3)cc(N3CCOCC3)cc2n1 [Compound 585], c1ncc(N[C@H]2CC[C@@H](Oc3cc(N4CCOCC4)cc4nccnc34)CC2)cn1 [Compound 575], Cc1ncc(C)c(N[C@H]2CC[C@@H](Oc3cc(N4CCOCC4)cc4nccnc34)CC2)n1 [Compound 490], CCN1CCC(c2cnc(N[C@H]3CC[C@@H](Oc4cc(N5CCOCC5)cc5nccnc45)CC3)nc2)CC1 [Compound 523], Fc1c(NC2CCOC2)ncnc1N[C@H]1CC[C@@H](Oc2cc(N3CCOCC3)cc3nccnc23)CC1 (some centres unmarked) [Compound 379], c1cnc2c(O[C@H]3C[C@@H](Nc4ncnc5ccoc45)C3)cc(N3CCOCC3)cc2n1 [Compound 356], Cc1cc(N[C@H]2CC[C@@H](Oc3cc(N4CCOCC4)cc4nccnc34)CC2)n[nH]1 [Compound 637], N#CCCN1CCC(c2cnc(N[C@H]3CC[C@@H](Oc4cc(N5CCOCC5)cc5nccnc45)CC3)nc2)CC1 [Compound 519], Clc1cncc(N[C@H]2CC[C@@H](Oc3cc(N4CCOCC4)cc4nccnc34)CC2)n1 [Compound 374], CC(C)(O)c1ncc(N[C@H]2CC[C@@H](Oc3cc(N4CCOCC4)cc4nccnc34)CC2)cn1 [Compound 341], CN(C)CCOc1ccnc(N[C@H]2CC[C@@H](Oc3cc(N4CCOCC4)cc4nccnc34)CC2)n1 [Compound 559], Cc1cnc(N[C@H]2CC[C@@H](Oc3cc(N4CCOCC4)cc4nccnc34)CC2)c(C)n1 [Compound 323], c1cn2ccnc2c(N[C@H]2CC[C@@H](Oc3cc(N4CCOCC4)cc4nccnc34)CC2)n1 [Compound 372], COc1c(N[C@H]2CC[C@@H](Oc3cc(N4CCOCC4)cc4nccnc34)CC2)ncnc1N(C)C [Compound 388], c1cnc2c(O[C@H]3CC[C@@H](Nc4ncnc5cc[nH]c45)CC3)cc(N3CCOCC3)cc2n1 [Compound 517], NC(=O)c1csc(N[C@H]2CC[C@@H](Oc3cc(N4CCOCC4)cc4nccnc34)CC2)n1 [Compound 331], c1cc(N2CCOCC2)nc(N[C@H]2CC[C@@H](Oc3cc(N4CCOCC4)cc4nccnc34)CC2)n1 [Compound 548], CCOC1CCN(c2cc(N[C@H]3CC[C@@H](Oc4cc(N5CCOCC5)cc5nccnc45)CC3)ncn2)CC1 [Compound 472], Cc1ncc(F)c(N[C@H]2CC[C@@H](Oc3cc(N4CCOCC4)cc4nccnc34)CC2)n1 [Compound 494], Cc1cnc2cc(N3CCOCC3)cc(O[C@H]3CC[C@@H](Nc4ncc(C5CCN(C)CC5)cn4)CC3)c2n1 [Compound 544], c1nc2c(c(N[C@H]3CC[C@@H](Oc4cc(N5CCOCC5)cc5nccnc45)CC3)n1)CCN2 [Compound 370], Cc1nc(N[C@H]2CC[C@@H](Oc3cc(N4CCOCC4)cc4nccnc34)CC2)ncc1F [Compound 476], c1cnc2nc(N[C@H]3CC[C@@H](Oc4cc(N5CCOCC5)cc5nccnc45)CC3)sc2c1 [Compound 330], OCc1ccnc(N[C@H]2CC[C@@H](Oc3cc(N4CCOCC4)cc4nccnc34)CC2)c1 [Compound 615], c1cnc2c(O[C@H]3CC[C@@H](Nc4cncc5nccn45)CC3)cc(N3CCOCC3)cc2n1 [Compound 336], COc1cncnc1N[C@H]1CC[C@@H](Oc2cc(N3CCOCC3)cc3nccnc23)CC1 [Compound 438], Clc1cc2nccn2c(N[C@H]2CC[C@@H](Oc3cc(N4CCOCC4)cc4nccnc34)CC2)n1 [Compound 538]
